# Like-named read-outs stand apart in the source and are kept apart here.
# Tested on: MRI-H-254 tumors
# Assay type: in vivo, mice
# Description: Female athymic nude mice (Harlan Sprague Dawley, Madison, Wis.) were utilized for all experiments. Animals were housed in ventilated rack caging with food and water ad libitum. The mice were acclimated for at least 5 days prior to tumor implantation with tumor fragments.
# Treatments were initiated on DPI 16.
# Tumor size measurements were recorded twice weekly from the treatment initiation until the termination of the study.
# Mean, standard deviation and standard error of the mean were determined for tumor volume for all animal groups at all assessments. Student's t test was performed on tumor volumes at each measurement day, including at the end of the study, to determine whether there were any statistically significant differences between combination treatment groups and single monotherapy treatment groups.
# [1] = day 20, PM00104 0.90, cisplatin 3, irinotecan 10, paclitaxel 12.5 mg/kg/day
# [2] = day 20, PM00104 0.90, cisplatin 5, irinotecan 18, paclitaxel 25 mg/kg/day
# [3] = day 23, PM00104 0.90, cisplatin 3, irinotecan 10, paclitaxel 12.5 mg/kg/day
# [4] = day 26, PM00104 0.90, cisplatin 3, irinotecan 10, paclitaxel 12.5 mg/kg/day
# [5] = day 29, PM00104 0.90, cisplatin 3, irinotecan 10, paclitaxel 12.5 mg/kg/day
# [6] = day 40, PM00104 0.90, cisplatin 3, irinotecan 10, paclitaxel 12.5 mg/kg/day
# [7] = day 40, PM00104 0.90, cisplatin 5, irinotecan 18, paclitaxel 25 mg/kg/day
# [8] = day 48, PM00104 0.90, cisplatin 3, irinotecan 10, paclitaxel 12.5 mg/kg/day
# [9] = day 48, PM00104 0.90, cisplatin 5, irinotecan 18, paclitaxel 25 mg/kg/day
compound,measurement,setting,value
CCc1c2c(nc3ccc(OC(=O)N4CCC(N5CCCCC5)CC4)cc13)-c1cc3c(c(=O)n1C2)COC(=O)[C@]3(O)CC [irinotecan],% Inhibition,"day 16, PM00104 0.90, cisplatin 3, irinotecan 10, paclitaxel 12.5 mg/kg/day",1.6%
same,% Inhibition,"day 16, PM00104 0.90, cisplatin 5, irinotecan 18, paclitaxel 25 mg/kg/day",1.9%
same,% Inhibition,[1],7.5%
same,% T/C,[1],92.5%
same,% Inhibition,[2],7.9%
same,% T/C,[2],92.1%
same,% Inhibition,[3],7.0%
same,% T/C,[3],93.0%
same,% Inhibition,"day 23, PM00104 0.90, cisplatin 5, irinotecan 18, paclitaxel 25 mg/kg/day",16.0%
same,% Inhibition,[4],9.8%
same,% T/C,[4],90.2%
same,% Inhibition,"day 26, PM00104 0.90, cisplatin 5, irinotecan 18, paclitaxel 25 mg/kg/day",25.0%
same,% Inhibition,[5],11.4%
same,% T/C,[5],88.6%
same,% Inhibition,[6],50.8%
same,% T/C,[6],49.2%
same,% Inhibition,[7],59.9%
same,% T/C,[7],40.1%
same,% Inhibition,[8],58.6%
same,% T/C,[8],41.4%
same,% Inhibition,[9],65.1%
same,% T/C,[9],34.9%

# — patent US20110070232A1, “Combination Therapy with an Antitumor Alkaloid” (Pharma Mar, S.A., priority 2008, published 2011)
